Laboratory results as given in US10947289B2, “Glyco-modified atrial natriuretic peptide” (priority 2013, dated 2021).

What was measured:
[1] = molecular target: T1, human GC-A (Homo sapiens, UniProt P16066); experiment: cGMP elevating activity in CHO/human GC-A cells (Test Example 1); assay type: cell-based
T1 construct: expressed in transfected cells; host or cells: CHO cells
T1 sequence (P16066 33-1061): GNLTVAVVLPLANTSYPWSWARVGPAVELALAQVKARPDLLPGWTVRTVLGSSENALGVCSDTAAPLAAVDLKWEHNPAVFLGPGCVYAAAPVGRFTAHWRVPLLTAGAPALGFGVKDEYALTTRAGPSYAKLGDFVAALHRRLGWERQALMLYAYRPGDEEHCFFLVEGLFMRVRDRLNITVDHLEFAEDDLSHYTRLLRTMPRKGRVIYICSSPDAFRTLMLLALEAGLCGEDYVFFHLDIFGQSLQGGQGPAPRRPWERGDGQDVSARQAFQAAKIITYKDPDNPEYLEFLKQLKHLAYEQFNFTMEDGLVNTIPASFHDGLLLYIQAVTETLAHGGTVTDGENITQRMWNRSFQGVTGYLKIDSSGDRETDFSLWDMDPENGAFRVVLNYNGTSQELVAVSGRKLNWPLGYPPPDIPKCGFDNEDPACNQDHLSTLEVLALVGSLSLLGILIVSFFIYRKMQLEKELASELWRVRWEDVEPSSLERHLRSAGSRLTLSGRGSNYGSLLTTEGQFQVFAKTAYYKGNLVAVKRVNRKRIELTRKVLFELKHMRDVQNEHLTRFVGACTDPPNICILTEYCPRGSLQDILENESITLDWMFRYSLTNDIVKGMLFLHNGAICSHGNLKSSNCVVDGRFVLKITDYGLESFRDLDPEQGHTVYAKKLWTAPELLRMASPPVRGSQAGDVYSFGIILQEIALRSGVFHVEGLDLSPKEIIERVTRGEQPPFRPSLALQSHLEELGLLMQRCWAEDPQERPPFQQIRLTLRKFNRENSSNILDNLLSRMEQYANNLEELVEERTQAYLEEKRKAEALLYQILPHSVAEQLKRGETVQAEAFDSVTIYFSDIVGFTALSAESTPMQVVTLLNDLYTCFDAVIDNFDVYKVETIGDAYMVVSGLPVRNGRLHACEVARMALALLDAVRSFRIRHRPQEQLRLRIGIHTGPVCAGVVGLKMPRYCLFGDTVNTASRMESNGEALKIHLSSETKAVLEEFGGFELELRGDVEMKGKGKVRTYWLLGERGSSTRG
Method in brief: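 CHO cells stably expressing human GC-A, pre-incubated 10 min at room temperature in 1.6 mM IBMX/KRB, then exposed to test peptide 15 min in CO2 incubator. Lysate cGMP measured by HTRF. Activity (T/C) scaled so solvent-only = 0 and 1 nM ANP = 1.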

[2] = Detection of test substance in rat plasma by LC-MS/MS (Test Example 3); assay type: in vivo; conditions: rat plasma, 100 nmol/kg i.v., LC-MS/MS; time at which the test substance was finally detected
Experimental: Before the administration and 15, 30, 60, 90, 120, 180, and 240 minutes after the administration, blood was sampled (200 μL/sampling) over time from the jugular vein. The blood samples were immediately left on ice.
The collected blood samples were centrifuged at 5000 rpm at 4° C. for 5 minutes by use of a centrifuge (Sigma 4K15, rotor: Nr12130-H). The separated plasma samples were divided into two types (samples for PK measurement and for cGMP measurement) and stored at −80° C. until measurement.
An internal standard (20 μL (500 nM) of a stable isotope of hANP) and an acetic acid mixed solvent (AcOH/distilled water/DMSO=5/3/2, v/v/v) were added to 50 μL of each rat plasma sample prepared in (1) and then mixed therewith. The mixture was transferred to Amicon Ultra-0.5 50K (Millipore Corp., MA) and centrifuged at 14000 rpm at 15° C. for 30 minutes. The obtained filtrate was transferred to Amicon Ultra-0.5 3K (Millipore Corp., MA) and centrifuged again under the aforementioned conditions. The solution remaining on the filter was recovered and transferred to a 96-well deep well plate. The content of the test substance was measured by LC-MS/MS (LC: Shimadzu LC-10ADVP (Shimadzu Corp.), MS/MS: API 4000 QTrap (AB SCIEX)) to calculate the concentration in plasma. The time at which the test substance was finally detected is shown in the rightmost column of Table 2.

| SMILES | EC50 [1] [nM] | Maximum time of detection after administration [2] [h] |
| --- | --- | --- |
| CC[C@H](C)[C@@H]1NC(=O)[C@H](CCCNC(=N)N)NC(=O)[C@H](CC(=O)O)NC(=O)[C@H](CCSC)NC(=O)[C@H](CCCNC(=N)N)NC(=O)CNC(=O)CNC(=O)[C@H](Cc2ccccc2)NC(=O)[C@@H](NC(=O)[C@H](CO)NC(=O)[C@H](CO)NC(=O)[C@H](CCCNC(=N)N)NC(=O)[C@H](CCCNC(=N)N)NC(=O)[C@H](CC(C)C)NC(=O)[C@H](CO)NC(=O)[C@@H](N)CC(=O)N[C@@H]2O[C@H](CO)[C@@H](O[C@@H]3O[C@H](CO)[C@@H](O[C@@H]4O[C@H](CO[C@H]5O[C@H](CO)[C@@H](O)[C@H](O)[C@@H]5O[C@@H]5O[C@H](CO)[C@@H](O[C@@H]6O[C@H](CO[C@]7(C(=O)O)C[C@H](O)[C@@H](NC(C)=O)[C@H]([C@H](O)[C@H](O)CO)O7)[C@H](O)[C@H](O)[C@H]6O)[C@H](O)[C@H]5NC(C)=O)[C@@H](O)[C@H](O[C@H]5O[C@H](CO)[C@@H](O)[C@H](O)[C@@H]5O[C@@H]5O[C@H](CO)[C@@H](O[C@@H]6O[C@H](CO[C@]7(C(=O)O)C[C@H](O)[C@@H](NC(C)=O)[C@H]([C@H](O)[C@H](O)CO)O7)[C@H](O)[C@H](O)[C@H]6O)[C@H](O)[C@H]5NC(C)=O)[C@@H]4O)[C@H](O)[C@H]3NC(C)=O)[C@H](O)[C@H]2NC(C)=O)CSSC[C@@H](C(=O)N[C@@H](CC(N)=O)C(=O)N[C@@H](CO)C(=O)N[C@@H](Cc2ccccc2)C(=O)N[C@@H](CCCNC(=N)N)C(=O)N[C@@H](Cc2ccc(O)cc2)C(=O)O)NC(=O)CNC(=O)[C@H](CC(C)C)NC(=O)CNC(=O)[C@H](CO)NC(=O)[C@H](CCC(N)=O)NC(=O)[C@H](C)NC(=O)CNC1=O [Compound 2-3, (SG-)Asn-hANP(1-28)] | 0.12 | 2 |
| CC[C@H](C)[C@@H]1NC(=O)[C@H](CCCNC(=N)N)NC(=O)[C@H](CC(=O)O)NC(=O)[C@H](CCSC)NC(=O)[C@H](CCCNC(=N)N)NC(=O)CNC(=O)CNC(=O)[C@H](Cc2ccccc2)NC(=O)[C@@H](NC(=O)[C@H](CO)NC(=O)[C@H](CO)NC(=O)[C@H](CCCNC(=N)N)NC(=O)[C@H](CCCNC(=N)N)NC(=O)[C@H](CC(C)C)NC(=O)[C@H](CO)NC(=O)CCOCCOCCOCCOCCNC(=O)[C@H](CC(=O)N[C@@H]2O[C@H](CO)[C@@H](O[C@@H]3O[C@H](CO)[C@@H](O[C@@H]4O[C@H](CO[C@H]5O[C@H](CO)[C@@H](O)[C@H](O)[C@@H]5O[C@@H]5O[C@H](CO)[C@@H](O[C@@H]6O[C@H](CO[C@]7(C(=O)O)C[C@H](O)[C@@H](NC(C)=O)[C@H]([C@H](O)[C@H](O)CO)O7)[C@H](O)[C@H](O)[C@H]6O)[C@H](O)[C@H]5NC(C)=O)[C@@H](O)[C@H](O[C@H]5O[C@H](CO)[C@@H](O)[C@H](O)[C@@H]5O[C@@H]5O[C@H](CO)[C@@H](O[C@@H]6O[C@H](CO[C@]7(C(=O)O)C[C@H](O)[C@@H](NC(C)=O)[C@H]([C@H](O)[C@H](O)CO)O7)[C@H](O)[C@H](O)[C@H]6O)[C@H](O)[C@H]5NC(C)=O)[C@@H]4O)[C@H](O)[C@H]3NC(C)=O)[C@H](O)[C@H]2NC(C)=O)NC(=O)CO[C@@H]2O[C@H](CO)[C@@H](O[C@@H]3O[C@H](CO)[C@@H](O[C@@H]4O[C@H](CO[C@H]5O[C@H](CO)[C@@H](O)[C@H](O)[C@@H]5O[C@@H]5O[C@H](CO)[C@@H](O[C@@H]6O[C@H](CO[C@]7(C(=O)O)C[C@H](O)[C@@H](NC(C)=O)[C@H]([C@H](O)[C@H](O)CO)O7)[C@H](O)[C@H](O)[C@H]6O)[C@H](O)[C@H]5NC(C)=O)[C@@H](O)[C@H](O[C@H]5O[C@H](CO)[C@@H](O)[C@H](O)[C@@H]5O[C@@H]5O[C@H](CO)[C@@H](O[C@@H]6O[C@H](CO[C@]7(C(=O)O)C[C@H](O)[C@@H](NC(C)=O)[C@H]([C@H](O)[C@H](O)CO)O7)[C@H](O)[C@H](O)[C@H]6O)[C@H](O)[C@H]5NC(C)=O)[C@@H]4O)[C@H](O)[C@H]3NC(C)=O)[C@H](O)[C@H]2NC(C)=O)CSSC[C@@H](C(=O)N[C@@H](CC(N)=O)C(=O)N[C@@H](CO)C(=O)N[C@@H](Cc2ccccc2)C(=O)N[C@@H](CCCNC(=N)N)C(=O)N[C@@H](Cc2ccc(O)cc2)C(=O)O)NC(=O)CNC(=O)[C@H](CC(C)C)NC(=O)CNC(=O)[C@H](CO)NC(=O)[C@H](CCC(N)=O)NC(=O)[C@H](C)NC(=O)CNC1=O [Compound 2-13, SG-(SG-)Asn-PEG(3)-hANP(1-28)] | 0.34 | 3 |
| CC[C@H](C)[C@@H]1NC(=O)[C@H](CCCNC(=N)N)NC(=O)[C@H](CC(=O)O)NC(=O)[C@H](CCSC)NC(=O)[C@H](CCCNC(=N)N)NC(=O)CNC(=O)CNC(=O)[C@H](Cc2ccccc2)NC(=O)[C@@H](NC(=O)[C@H](CO)NC(=O)[C@H](CO)NC(=O)[C@H](CCCNC(=N)N)NC(=O)[C@H](CCCNC(=N)N)NC(=O)[C@H](CC(C)C)NC(=O)[C@H](CO)NC(=O)CNC(=O)[C@H](CCCCNC(=O)CO[C@@H]2O[C@H](CO)[C@@H](O[C@@H]3O[C@H](CO)[C@@H](O[C@@H]4O[C@H](CO[C@H]5O[C@H](CO)[C@@H](O)[C@H](O)[C@@H]5O[C@@H]5O[C@H](CO)[C@@H](O[C@@H]6O[C@H](CO[C@]7(C(=O)O)C[C@H](O)[C@@H](NC(C)=O)[C@H]([C@H](O)[C@H](O)CO)O7)[C@H](O)[C@H](O)[C@H]6O)[C@H](O)[C@H]5NC(C)=O)[C@@H](O)[C@H](O[C@H]5O[C@H](CO)[C@@H](O)[C@H](O)[C@@H]5O[C@@H]5O[C@H](CO)[C@@H](O[C@@H]6O[C@H](CO[C@]7(C(=O)O)C[C@H](O)[C@@H](NC(C)=O)[C@H]([C@H](O)[C@H](O)CO)O7)[C@H](O)[C@H](O)[C@H]6O)[C@H](O)[C@H]5NC(C)=O)[C@@H]4O)[C@H](O)[C@H]3NC(C)=O)[C@H](O)[C@H]2NC(C)=O)NC(=O)CO[C@@H]2O[C@H](CO)[C@@H](O[C@@H]3O[C@H](CO)[C@@H](O[C@@H]4O[C@H](CO[C@H]5O[C@H](CO)[C@@H](O)[C@H](O)[C@@H]5O[C@@H]5O[C@H](CO)[C@@H](O[C@@H]6O[C@H](CO[C@]7(C(=O)O)C[C@H](O)[C@@H](NC(C)=O)[C@H]([C@H](O)[C@H](O)CO)O7)[C@H](O)[C@H](O)[C@H]6O)[C@H](O)[C@H]5NC(C)=O)[C@@H](O)[C@H](O[C@H]5O[C@H](CO)[C@@H](O)[C@H](O)[C@@H]5O[C@@H]5O[C@H](CO)[C@@H](O[C@@H]6O[C@H](CO[C@]7(C(=O)O)C[C@H](O)[C@@H](NC(C)=O)[C@H]([C@H](O)[C@H](O)CO)O7)[C@H](O)[C@H](O)[C@H]6O)[C@H](O)[C@H]5NC(C)=O)[C@@H]4O)[C@H](O)[C@H]3NC(C)=O)[C@H](O)[C@H]2NC(C)=O)CSSC[C@@H](C(=O)N[C@@H](CC(N)=O)C(=O)N[C@@H](CO)C(=O)N[C@@H](Cc2ccccc2)C(=O)N[C@@H](CCCNC(=N)N)C(=O)N[C@@H](Cc2ccc(O)cc2)C(=O)O)NC(=O)CNC(=O)[C@H](CC(C)C)NC(=O)CNC(=O)[C@H](CO)NC(=O)[C@H](CCC(N)=O)NC(=O)[C@H](C)NC(=O)CNC1=O [Compound 2-14, SG-(SG-)Lys-Gly-hANP(1-28)] | 0.6 | 1.5 |
